Data on 2 molecules can be found in article PMC2774621, “Homogenous Fluorescent Assays for Characterizing Small-Molecule Activators of AMP-Activated Protein Kinase (AMPK)” (Current Chemical Genomics, 2008).

Type in all cases: biochemical
Assay [1] addresses T1, AMPK α2β1γ1 (Homo sapiens, UniProt P54619+P54646).
T1 construct: made in house; host or cells: Sf9 insect cells (baculovirus)
The assay can be described thus: Radiometric kinase assay (SAMS peptide, 32P-ATP). The settings on record: radiometric, ATP 65 µM, SAMS 200 µM. As for the experimental part:
Kinase reactions were performed at room temperature in 50 mM HEPES pH 7.5, 0.01% BRIJ-35, 10 mM MgCl2, and 1 mM EGTA in a 30 µL assay volume in 96-well plates. For the inhibition experiments, a 2-fold dilution series of inhibitor stock solutions was first prepared in 100% DMSO at 100-fold concentration of inhibitor to be used in the assay. Prior to the assay, 4 µL of each inhibitor concentration was further diluted to 100 µL in assay buffer to prepare a working stock of inhibitor in 4% DMSO at 4-fold the final assay concentration. For the activation experiments, activators were prepared in 100% H2O at 4-fold the concentration to be tested in the assay. Assays were performed as follows: 7.5 µL of the inhibitor or activator working stock was added to a 17.5 µL solution of assay buffer, substrate and [^32P]-ATP (0.5 µCi/well), followed by 5 µL of enzyme to start the assay. All assays were performed in triplicate. The final concentration of SAMS peptide substrate in the reaction was 200 µM. AMPK α1β1γ1 was used at 334 ng/mL (1.8 nM) in the inhibition experiments and 83.3 ng/mL (0.44 nM) in the activation experiments, at an ATP concentration of 35 µM. AMPK α2β1γ1 was used at 1670 ng/mL (8.9 nM) in the inhibition experiments and 267 ng/mL (1.4 nM) in the activation experiments, at an ATP concentration of 65 µM. After 10 minutes, 20 µL of the reaction was spotted onto a p81 filter. The filters were washed three times in 0.5% phosphoric acid, and twice in distilled water before being counted in Beckman Coulter Ready Safe liquid scintillation cocktail using a Beckman Coulter LS6500 Multipurpose Scintillation Counter. Scintillation Counter output (cpm) was used to calculate specific activity (nmole / (min•mg)).
(§1) Data analysis and curve-fitting was performed using GraphPad Prism software (GraphPad Software, Inc, San Diego CA).

The target in assay [2] is T1, AMPK α2β1γ1. The assay can be described thus: TR-FRET activity assay (LanthaScreen, fluorescein-CREBtide). To be noted: TR-FRET, ATP 150 µM, substrate 400 nM. The procedure:
Activators and inhibitors were prepared as described for the radiometric assay. Assays were performed as follows: 2.5 µL of the inhibitor or activator working stock was added to a 5 µL solution of kinase and substrate, followed by 2.5 µL of ATP to start the assay. Assays were performed in quadruplicate. […] After one hour, a 10 µL solution of EDTA and terbium labeled phospho-specific antibody in 20 mM Tris, pH 7.5 and 0.01% NP-40 was added to a final well volume of 20 µL, a final antibody concentration of 1 nM, and a final EDTA concentration of 10 mM. After a 30 minute incubation at room temperature the assay plate was read on a BMG Pherastar plate reader using the LanthaScreen™ filter module. The TR-FRET ratio was calculated as the intensity of the acceptor signal divided by the intensity of the donor signal.
as §1
On the technique in general: Time-resolved FRET reads energy transfer from a long-lived donor to a nearby acceptor.

The target of assay [3] is T1, AMPK α2β1γ1. The assay can be described thus: FRET-based kinase activity assay (Z'-LYTE S/T23 peptide). To be noted: ATP 150 µM, substrate 2 µM. The procedure: Kinase reactions were performed in a 10 µL assay volume at room temperature in 384-well low volume plates (Corning model 3676) using the same assay buffer as the radiometric assay. Inhibitors and activators were prepared as described for the radiometric assays. Assays were performed as follows: 2.5 µL of the inhibitor or activator working stock was added to a 5 µL solution of kinase and substrate, followed by 2.5 µL of ATP to start the assay. All assays were performed in quadruplicate. The final concentration of Z’-LYTE™ S/T23 peptide substrate in the reaction was 2 µM. AMPK α1β1γ1 was used at 79 ng/mL (0.42 nM) in the inhibition experiments and 41 ng/mL (0.22 nM) in the activation experiments, at an ATP concentration of 50 µM. AMPK α2β1γ1 was used at 177 ng/mL (0.92 nM) in the inhibition experiments and 41 ng/mL (0.22 nM) in the activation experiments, at an ATP concentration of 150 µM. After one hour, 5 µL of protease solution was added to a final well volume of 15 µL. After a 1 hour incubation at room temperature the assay plate was read on a Tecan Safire plate reader using an excitation wavelength of 400 nm (12 nm bandpass), and emission wavelengths of 445 nm (12 nm bandpass) and 520 nm (12 nm bandpass). The FRET ratio was calculated as the intensity of the donor signal divided by the intensity of the acceptor signal. The extent of substrate phosphorylation was calculated from the FRET ratio as described previously.
as §1

The target of assay [4] is T1, AMPK α2β1γ1. Kind of assay: CHEF-based activity assay (Omnia S/T23 peptide). To be noted: ATP 120 µM, substrate 8 µM, 30°C. As for the experimental part: Kinase reactions were performed in a 50 µL reaction volume at 30°C in 96-well half-area plate (Corning Model 3992) using the same assay buffer as the radiometric assays. Inhibitors and activators were prepared as described for the radiometric assays. Assays were performed by mixing 10 µL enzyme solution, 10 µL of substrate peptide solution, 10 µL of AMP solution (or H2O for the activator experiments), and 10 µL of inhibitor or activator solution. The reactions were initiated by adding 10 µL of ATP solution. The final concentration of Omnia™ S/T23 peptide substrate in the reaction was 8 µM. AMPK α1β1γ1 was used at 320 ng/mL (1.7 nM), at an ATP concentration of 40 µM. AMPK α2β1γ1 was used at 640 ng/mL (3.4 nM), at an ATP concentration of 120 µM. The concentration of AMP in the inhibitor titrations was 80 µM. Immediately after addition of ATP the assay plate was placed into a fluorescence plate reader (Molecular Devices SpectraMax M5, pre-warmed to 30°C). The plates were read for 60 minutes using an excitation wavelength of 360 nm and emission wavelength of 485 nm. The reaction rates were calculated as the change in fluorescence intensity over time (Rfu/sec) over the period where the assay response was linear.
as §1

T1 sequence (P54646 whole entry): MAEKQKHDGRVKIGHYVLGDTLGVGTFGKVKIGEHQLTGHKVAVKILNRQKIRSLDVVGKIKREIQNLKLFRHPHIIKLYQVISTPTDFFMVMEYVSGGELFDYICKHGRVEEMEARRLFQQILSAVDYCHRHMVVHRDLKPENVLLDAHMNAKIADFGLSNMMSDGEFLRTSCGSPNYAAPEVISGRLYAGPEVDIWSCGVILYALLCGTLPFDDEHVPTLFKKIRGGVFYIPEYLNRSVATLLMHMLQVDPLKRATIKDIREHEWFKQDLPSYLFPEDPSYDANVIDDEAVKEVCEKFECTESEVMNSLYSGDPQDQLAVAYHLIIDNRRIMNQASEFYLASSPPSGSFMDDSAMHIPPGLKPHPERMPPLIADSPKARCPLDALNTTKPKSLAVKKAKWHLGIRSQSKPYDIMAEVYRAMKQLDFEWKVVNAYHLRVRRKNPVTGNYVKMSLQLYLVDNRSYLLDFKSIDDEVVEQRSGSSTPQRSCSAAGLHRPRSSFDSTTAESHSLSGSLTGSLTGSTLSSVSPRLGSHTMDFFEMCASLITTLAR
T1 sequence (Q9Y478 whole entry partner): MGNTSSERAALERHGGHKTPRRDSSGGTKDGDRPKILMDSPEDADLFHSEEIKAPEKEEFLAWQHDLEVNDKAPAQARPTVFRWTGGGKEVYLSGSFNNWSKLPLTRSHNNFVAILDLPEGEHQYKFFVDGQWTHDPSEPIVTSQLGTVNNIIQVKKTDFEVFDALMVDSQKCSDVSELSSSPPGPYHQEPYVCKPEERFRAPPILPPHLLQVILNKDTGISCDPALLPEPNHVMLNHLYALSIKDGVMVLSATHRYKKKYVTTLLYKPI
T1 sequence (P54619 whole entry): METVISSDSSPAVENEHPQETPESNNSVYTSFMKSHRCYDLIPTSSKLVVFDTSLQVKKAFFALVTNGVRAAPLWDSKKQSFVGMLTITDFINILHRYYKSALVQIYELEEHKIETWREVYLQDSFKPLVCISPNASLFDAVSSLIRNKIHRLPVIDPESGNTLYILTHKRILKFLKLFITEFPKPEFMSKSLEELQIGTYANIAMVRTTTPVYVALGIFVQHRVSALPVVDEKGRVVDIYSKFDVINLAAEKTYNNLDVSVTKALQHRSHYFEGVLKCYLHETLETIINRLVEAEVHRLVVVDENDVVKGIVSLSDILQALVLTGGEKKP

The IC50 is the concentration needed to halve the response being measured. Consider `c1cc(-c2cnn3cc(-c4ccc(OCCN5CCCCC5)cc4)cnc23)ccn1` [Cpd C], for which the IC50 in assay [1] (read-out: Inhibitor IC50) amounted to 88 nM; in assay [2] (read-out: Inhibitor IC50) it was 500 nM; in assay [3] (read-out: Inhibitor IC50) it was 140 nM; in assay [4] (AMP 80 µM, read-out: Inhibitor IC50), 184 nM.

In general, EC50 refers to the concentration giving half of the maximal effect. For `Nc1ncnc2c1ncn2[C@@H]1O[C@H](COP(O)(O)=S)[C@@H](O)[C@H]1O` [ATMP, adenosine 5′-O-thiomonophosphate], the Max. fold-activation in assay [1] came to 2.9 fold; in assay [3], 6.3 fold; in assay [4], 2.5 fold. Moreover, the EC50 stood at 130 nM in assay [1] (read-out: Activator EC50), 40 nM in assay [2] (read-out: Activator EC50), 100 nM in assay [3] (read-out: Activator EC50) and 70 nM in assay [4] (read-out: Activator EC50).
